# Assay results published in patent publication US8153784B2, “Imaging of enzyme activity” (The General Hospital Corporation, priority 2004, dated 2012).
# Tests used:
# [1] = Biodistribution of 111In tracer; format: in vivo, mouse; conditions: mice, 6 h post injection
# Method: (§1) 80-100 μCi of ^111In-bis-5-HT-DTPA in 200 μL of saline was injected intravenously into three mice prepared in the same manner as in the MPO/Matrigel MR imaging experiments. The animals were imaged 3 hours after injection on a high resolution X-SPECT/CT system (Gamma Medica). Six hours after injection, the animals were sacrificed and biodistribution was determined in major organs. The % dose accumulated per gram of major organs was determined by using the 1480 Wizard gamma counter (Perkin-Elmer).
# MPO = target: T1, MPO (Homo sapiens, UniProt P05164); assay: SPECT-CT imaging of MPO/Matrigel implants with 111In tracer; format: in vivo, mouse; design: purchased BioDesign, Inc
# T1 sequence (P05164 49-745): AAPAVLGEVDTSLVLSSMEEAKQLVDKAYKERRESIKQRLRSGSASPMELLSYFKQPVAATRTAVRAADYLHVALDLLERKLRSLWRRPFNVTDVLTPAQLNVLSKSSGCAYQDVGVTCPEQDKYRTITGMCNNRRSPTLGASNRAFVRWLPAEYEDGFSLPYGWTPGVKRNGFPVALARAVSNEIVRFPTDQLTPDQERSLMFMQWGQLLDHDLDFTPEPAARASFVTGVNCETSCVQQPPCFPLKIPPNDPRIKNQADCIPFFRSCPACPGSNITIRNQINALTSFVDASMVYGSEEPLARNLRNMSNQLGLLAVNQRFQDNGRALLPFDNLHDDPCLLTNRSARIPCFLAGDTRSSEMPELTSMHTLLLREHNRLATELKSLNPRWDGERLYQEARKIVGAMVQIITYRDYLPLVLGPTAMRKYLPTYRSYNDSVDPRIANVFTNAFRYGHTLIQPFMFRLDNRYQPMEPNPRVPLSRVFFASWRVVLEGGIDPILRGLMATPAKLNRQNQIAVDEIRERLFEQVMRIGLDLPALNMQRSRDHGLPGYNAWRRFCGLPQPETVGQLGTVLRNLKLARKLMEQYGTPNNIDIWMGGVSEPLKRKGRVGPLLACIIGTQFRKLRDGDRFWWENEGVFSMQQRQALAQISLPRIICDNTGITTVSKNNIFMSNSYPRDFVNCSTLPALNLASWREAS
# Method: (§2) Ten-week old C57BL6 male mice were obtained from Jackson Laboratories. A total of 22 mice were used for the study. • 1. MPO/Matrigel imaging experiments: Matrigel™ (Beckton-Dickinson), a […] basement membrane matrix gel was used to immobilize human MPO and glucose oxidase (to supply H2O2 required for detecting MPO oxidative activity, Calbiochem). This was chosen to reflect deposits of human MPO in inflamed tissue in a mouse model. 400 μL of a mixture of Matrigel™ and MEM (Cambrex) was injected slowly into the thighs of each mouse one hour prior to imaging. The right thigh mixture also contained 15 U of MPO and 4 U of glucose oxidase (Calbiochem), while the left thigh mixture contained no enzyme and thus serves as an internal control. A total of 15 mice were used (3 mice each for 5-HT-DOTA(Gd), bis-5-HT-DTPA(Gd), bis-5-HT-DTPA-^111In, bis-tyramide-DTPA(Gd), and DTPA(Gd)). • 2. LPS/Matrigel experiments (n=3): This model was developed to induce endogeneous mouse MPO secretion and activation. 200 μL total volume Matrigel containing 10% heparin was injected slowly into the thighs of the mice 4 days prior to imaging. The right-sided mixture also contained E. coli lipopolysaccharide (LPS) at 10 μg/mL. One mouse was sacrificed for immunohistochemistry. • 3. Myositis experiments (n=4): LPS at 100 μg/mL in PBS was injected into each mouse intramuscularly in the right flank to produce myositis. The mice are imaged 24 hours after injection.
# as §1
# [2] = target: T2, horseradish peroxidase (HRP) (Armoracia rusticana, UniProt P00433); assay: HRP-mediated polymerization of DOTA(Gd) substrates: relaxivity change; format: biochemical; design: purchased Sigma
# T2 sequence (P00433 31-338): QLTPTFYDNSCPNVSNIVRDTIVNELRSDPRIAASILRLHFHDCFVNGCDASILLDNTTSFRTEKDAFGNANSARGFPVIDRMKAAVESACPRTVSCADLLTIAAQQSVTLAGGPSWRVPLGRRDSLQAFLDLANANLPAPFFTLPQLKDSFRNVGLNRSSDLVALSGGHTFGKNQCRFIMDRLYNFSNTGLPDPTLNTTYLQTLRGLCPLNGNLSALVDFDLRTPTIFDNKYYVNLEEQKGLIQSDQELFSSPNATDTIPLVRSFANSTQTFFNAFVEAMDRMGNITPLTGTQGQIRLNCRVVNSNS
# Method: (§3) Reactions with HRP and MPO were carried out at room temperature in the presence of 0.5-1 mM substrate dissolved in 0.5 ml PBS containing H2O2 (2 mM). Reaction was initiated by adding an aliquot containing the enzyme (either HRP or MPO) and vortexing. After at least a 30 min incubation period T1 was measured using inversion-recovery pulse sequence Bruker Minispec (Buker Analytics, North Bellirica Mass.) at 0.47 T (20 MHz). Size-exclusion HPLC of reaction products was performed on TSK G3000SWXL macroporous column (Supelco) eluted with 0.1 M triethylammonium acetate, pH 7.0 at 1 ml/min.
# Standard 96-well plates were prepared and imaged on a 1.5 T whole body clinical General Electric Signa MRI scanner utilizing a standard 3 inch surface coil. Inversion recovery sequences were used to measure T1 relaxation and spin echo sequences were utilized to measure T2 relaxation. T2 weighted images were obtained with TR=5000 ms and TE=100 ms with a fast spin echo sequence. T1 weighted images were obtained with spin echo sequences with the following parameters: TR=100, 200, 350, or 500, TE=11. For the Matrigel™ experiments, a relatively T2 weighted image was obtained at TR=300 ms and TE=200 ms. Single-exponential models were used to obtain T1 and T2. […]
# [3] = target: T2, horseradish peroxidase (HRP); assay: Pseudo-first-order rate constants of HRP-mediated conversion (relaxation times over time, 0.47 T); format: biochemical, horseradish; design: purchased Sigma-Aldrich type XII (catalogue number not given); conditions: from T1 measurements, mean±SD
# Method: Kinetics of the samples were observed by measuring T1 and T2 at 0.47 T and 40° C. of the samples over at least a 24 hour period. At different time points, 1 M of sodium azide (final concentration=0.17 M) was added to stop the enzyme mediated reaction. The resultant progress curve was fitted with an empirical mathematical model and analyzed according to the Guggenheim method to obtain the pseudo-first-order rate constants (Guggenheim E A. Philos. Mag. 1926; 2:538).
# An important property of a suitable substrate for an enzyme is the kinetics of enzymatic reaction. To determine the utility of the paramagnetic complexes as suitable substrates for human myeloperoxidase (MPO), we measured the pseudo-first-order rate constant of these substrates in MPO, and compared to the same substrates' reactions in Horse Radish Peroxidase (HRP) by monitoring the changes in relaxation time over time. […] The results shown were obtained using T1 measurements. T2 measurements yielded nearly identical results. The results are presented as mean±SD. N/A=not applicable.
# human neutrophil MPO = target: T3, human neutrophil MPO (Homo sapiens, UniProt P05164); assay: MPO-mediated polymerization of DOTA(Gd) substrates: T1/T2 relaxivity change; format: biochemical; conditions: for relaxivity ratio: ˜2000 U of MPO activity
# T3 construct: purchased BioDesign Inc
# Method: as §3
# Standard 96-well plates were prepared and imaged on a 1.5 T whole body clinical General Electric Signa MRI scanner utilizing a standard 3 inch surface coil. Inversion recovery sequences were used to measure T1 relaxation and spin echo sequences were utilized to measure T2 relaxation. T2 weighted images were obtained with TR=5000 ms and TE=100 ms with a fast spin echo sequence. T1 weighted images were obtained with spin echo sequences with the following parameters: TR=100, 200, 350, or 500, TE=11. For the Matrigel™ experiments, a relatively T2 weighted image was obtained at TR=300 ms and TE=200 ms. Single-exponential models were used to obtain T1 and T2. The relaxivities were computed by normalizing relaxation rates to the concentration of gadolinium in each sample, obtained by inductive coupled plasma (ICP) analysis performed by Galbraith Laboratories.
# To determine the effect of myeloperoxidase on the substrates, we performed T1 and T2 relaxivity measurements in aqueous solutions, with and without MPO and hydrogen peroxide, at 0.47 T and 1.5 T (the results are summarized in FIGS. 3A and 3B for tyramide-DOTA(Gd) and FIGS. 4A and 4B for 5-HT-DOTA(Gd)). For reference, the two substrates were also reacted with HRP (solid symbols in FIGS. 3A and 3B and FIGS. 4A and 4B).
# [4] = target: T4, human MPO embedded in Matrigel (Homo sapiens, UniProt P05164); assay: MPO/Matrigel implant mouse model, T1-weighted MR imaging; format: in vivo; conditions: mice; right MPO/Matrigel vs left control; 1.5 T
# T4 construct: purchased BioDesign, Inc
# T4 sequence (P05164 49-745): T1 sequence (P05164 49-745)
# Method: To evaluate the monomeric substrates in vivo, we devised a mouse model that harbored 400 μL of Matrigel basement membrane matrix gel mixed 1:1 by volume with a solution containing 15 U of human MPO and glucose oxidase (as a source of hydrogen peroxide) that was injected into the right flank of the mouse. The left flank was injected with the enzyme-free Matrigel mixture. We subsequently performed T1-weighted MR imaging after the intravenous injection of Gd-DTPA-diSer substrate at the dose of […].
# The MR imaging experiments were performed on a 1.5 T GE Excite scanner and a 4.7 T Bruker Pharmascan scanner. For all MR imaging experiments, precontrast T2-(TR=2000, TE=100, ETL=8, NEX=4, fast spin echo sequence) and T1-weighted images (TR=500, TE=11, NEX=4, spin echo sequence) with fat saturation were initially performed to locate the gels or area of inflammation. The substrates (0.3 mmol/kg) were subsequently injected via the tail vein of the mouse. The mouse was immediately imaged after the injection of the contrast agent using multiple T1-weighted sequences with fat saturation for at least 3 hours.
# as §2
# For normalized signal intensity measured on T1-weighted images, mean±standard deviation (SD) values were calculated in regions of interest (ROI). Contrast-to-noise (CNR) ratios were computed for each ROI according to the formula
# MPO-I = target: T5, MPO-I (Homo sapiens, UniProt P05164); conditions: cited from earlier work
# T5 sequence (P05164 49-745): T1 sequence (P05164 49-745)
smiles,measurement,setting,value
O=C([O-])CN(CCN(CC(=O)[O-])CC(=O)NCCc1c[nH]c2ccc(O)cc12)CCN(CC(=O)[O-])CC(=O)NCCc1c[nH]c2ccc(O)cc12.[111In+3] [^111In-bis-5-HT-DTPA],injected dose excreted,[1],90%
same,organs holding most of the remaining dose,[1],"spleen, bowel, kidney, and liver"
same,organs holding most of the remaining dose,[1]; listed as 111In-chelated monomeric substrate,"spleen, kidneys, bowel, and liver"
same,increase in the radioactivity of the right leg (with MPO) vs. the left leg (without MPO),"MPO; mice n=3, SPECT-CT 3 hours after injection",2.3±0.3 fold
same,increase in count in the dissected gel with embedded MPO,"MPO; mice, 6 h post injection",greater than 4 fold
same,uptake on the side containing MPO,"MPO; mouse, SPECT/CT 3 hours after the injection",significant increased uptake
"CC(C(=O)NCC(=O)NCCc1ccc(O)cc1)N1CCN(CC(=O)[O-])CCN(CC(=O)[O-])CCN(CC(=O)[O-])CC1.[Gd+3] (stereo not shown) [tyramide-DOTA(Gd), Glycylmethyl DOTA(Gd) Tyramide]",relaxivity ratio,[2]; 0.47 T,about 2.3 times
same,relaxivity ratio,[2]; 1.5 T,about 2.1 times
same,Pseudo first-order rate constant,[3],0.0095 s⁻¹
same,relaxivity ratio,human neutrophil MPO; 0.47 T,1.7 times
same,relaxivity ratio,human neutrophil MPO; 1.5 T,1.4 times
same,T1 shortening relative to the HRP result,human neutrophil MPO; 2000 U MPO,70-75%
same,MPO needed to reach >90% of the T1 shortening seen with HRP,human neutrophil MPO; assuming a linear response to the amount of MPO,> 3000 U
same,increase in relaxivity of polymer product,"human neutrophil MPO; equivalent amount of MPO, clinical imaging strength",1.4 times
O=C(O)CN(CCN(CC(=O)O)CC(=O)NCCc1c[nH]c2ccc(O)cc12)CCN(CC(=O)O)CC(=O)NCCc1c[nH]c2ccc(O)cc12 [Compound 2],enhancement of MPO implant compared with control implant,[4],significantly increased enhancement
"CC(C(=O)NCC(=O)NCCc1ccc(O)c(O)c1)N1CCN(CC(=O)[O-])CCN(CC(=O)[O-])CCN(CC(=O)[O-])CC1.[Gd+3] (stereo not shown) [hydroxytyramide-DOTA(Gd), Glycylmethyl DOTA(Gd) Hydroxytyramide]",reaction with MPO,human neutrophil MPO,does not react with MPO
same,relaxivity increase from reaction with MPO,human neutrophil MPO,did not result in a substantially significant relaxivity increase
"NCCc1c[nH]c2ccc(O)cc12 [serotonin, 3-(2-aminoethyl)-5-hydroxyindole]",MPO-mediated oxidation in excess chloride,"MPO-I; about 5,000 times higher excess of chloride",could not be completely stopped
same,kinetic constant of the MPO-I reaction relative to the reaction with chloride,MPO-I; neutral pH,about 10 times
